Measurements taken from ChEMBL document CHEMBL1153290, “Development of multitargeted inhibitors of both the insulin-like growth factor receptor (IGF-IR) and members of the epidermal growth factor family of receptor tyrosine kinases” (Bioorg Med Chem Lett, 2009).
Active and inactive are the calls of the source. The rule behind the calls is not given here.

Columns and labels:
[1] = molecular target: T1, Receptor tyrosine-protein kinase erbB-2 (Homo sapiens, UniProt P04626); assay: Inhibition of ErbB2 by time resolved fluorescence assay
T1 sequence (P04626 whole entry): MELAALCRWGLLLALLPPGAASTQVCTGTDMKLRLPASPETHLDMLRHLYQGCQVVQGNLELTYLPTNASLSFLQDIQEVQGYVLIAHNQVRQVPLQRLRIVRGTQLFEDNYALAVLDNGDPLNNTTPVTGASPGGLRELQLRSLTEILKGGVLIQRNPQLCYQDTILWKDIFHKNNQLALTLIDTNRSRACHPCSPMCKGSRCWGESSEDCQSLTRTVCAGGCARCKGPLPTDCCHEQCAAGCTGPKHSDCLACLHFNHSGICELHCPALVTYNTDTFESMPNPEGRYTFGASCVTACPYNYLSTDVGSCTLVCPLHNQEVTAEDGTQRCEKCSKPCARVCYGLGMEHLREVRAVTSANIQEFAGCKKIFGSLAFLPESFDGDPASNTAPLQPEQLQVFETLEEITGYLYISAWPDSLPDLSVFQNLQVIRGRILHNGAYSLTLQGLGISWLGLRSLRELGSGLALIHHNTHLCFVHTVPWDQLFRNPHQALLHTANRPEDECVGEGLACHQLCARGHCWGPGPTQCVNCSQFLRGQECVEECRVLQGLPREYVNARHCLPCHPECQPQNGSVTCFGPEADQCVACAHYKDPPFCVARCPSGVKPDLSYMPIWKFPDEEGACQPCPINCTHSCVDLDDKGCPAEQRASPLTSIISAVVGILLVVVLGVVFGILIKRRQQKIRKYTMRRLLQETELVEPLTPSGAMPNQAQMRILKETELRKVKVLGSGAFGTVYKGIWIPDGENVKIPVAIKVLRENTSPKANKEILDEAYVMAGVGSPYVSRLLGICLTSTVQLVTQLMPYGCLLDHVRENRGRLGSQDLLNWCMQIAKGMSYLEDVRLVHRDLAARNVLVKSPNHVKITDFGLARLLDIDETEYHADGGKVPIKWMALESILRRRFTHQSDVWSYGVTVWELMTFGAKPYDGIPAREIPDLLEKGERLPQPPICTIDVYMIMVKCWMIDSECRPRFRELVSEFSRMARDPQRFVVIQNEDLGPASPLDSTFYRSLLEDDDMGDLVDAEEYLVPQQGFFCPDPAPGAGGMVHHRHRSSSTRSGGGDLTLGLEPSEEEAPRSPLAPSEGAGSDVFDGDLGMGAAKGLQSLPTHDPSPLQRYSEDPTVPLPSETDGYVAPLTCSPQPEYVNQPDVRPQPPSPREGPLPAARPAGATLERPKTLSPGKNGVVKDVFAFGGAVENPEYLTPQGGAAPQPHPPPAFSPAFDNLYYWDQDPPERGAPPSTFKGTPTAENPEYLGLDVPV

[2] = molecular target: T2, Insulin-like growth factor 1 receptor (Homo sapiens, UniProt P08069); assay: Inhibition of IGF1R by time resolved fluorescence assay
T2 sequence (P08069 31-736 limits assumed): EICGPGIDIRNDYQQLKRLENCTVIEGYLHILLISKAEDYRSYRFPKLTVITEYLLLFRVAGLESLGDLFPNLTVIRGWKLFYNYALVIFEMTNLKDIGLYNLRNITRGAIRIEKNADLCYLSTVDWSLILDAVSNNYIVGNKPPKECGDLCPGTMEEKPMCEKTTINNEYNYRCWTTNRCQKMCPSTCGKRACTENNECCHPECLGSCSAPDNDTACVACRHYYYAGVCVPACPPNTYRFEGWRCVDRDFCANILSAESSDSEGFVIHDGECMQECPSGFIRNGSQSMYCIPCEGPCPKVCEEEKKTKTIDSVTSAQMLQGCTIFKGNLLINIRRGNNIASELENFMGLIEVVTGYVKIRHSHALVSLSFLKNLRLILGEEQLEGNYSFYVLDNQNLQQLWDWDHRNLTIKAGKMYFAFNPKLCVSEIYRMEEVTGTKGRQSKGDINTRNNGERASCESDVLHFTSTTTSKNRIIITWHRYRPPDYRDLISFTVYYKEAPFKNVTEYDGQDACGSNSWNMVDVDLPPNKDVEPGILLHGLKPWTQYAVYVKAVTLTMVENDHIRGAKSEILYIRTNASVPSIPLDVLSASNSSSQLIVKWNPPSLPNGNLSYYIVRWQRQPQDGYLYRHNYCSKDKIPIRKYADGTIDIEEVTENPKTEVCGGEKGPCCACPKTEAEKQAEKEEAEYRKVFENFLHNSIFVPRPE
T2 sequence (P08069 741-1367 limits assumed): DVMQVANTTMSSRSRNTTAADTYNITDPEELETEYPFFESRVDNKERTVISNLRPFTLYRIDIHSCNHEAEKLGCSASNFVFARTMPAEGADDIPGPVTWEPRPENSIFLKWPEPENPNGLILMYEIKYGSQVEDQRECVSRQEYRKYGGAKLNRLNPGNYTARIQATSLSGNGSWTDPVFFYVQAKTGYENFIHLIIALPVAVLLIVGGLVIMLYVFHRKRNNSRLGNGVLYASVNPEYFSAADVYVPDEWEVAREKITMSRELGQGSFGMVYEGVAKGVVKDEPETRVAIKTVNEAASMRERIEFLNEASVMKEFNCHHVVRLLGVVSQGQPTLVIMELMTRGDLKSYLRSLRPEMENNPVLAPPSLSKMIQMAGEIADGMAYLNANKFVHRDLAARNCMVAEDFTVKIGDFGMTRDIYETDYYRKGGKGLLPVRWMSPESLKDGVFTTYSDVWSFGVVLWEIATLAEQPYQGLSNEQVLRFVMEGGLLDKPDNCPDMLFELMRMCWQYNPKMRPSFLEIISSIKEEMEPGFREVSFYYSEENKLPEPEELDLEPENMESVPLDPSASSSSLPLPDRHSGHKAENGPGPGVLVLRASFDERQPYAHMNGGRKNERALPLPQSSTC

[3] = molecular target: Epidermal growth factor receptor (Homo sapiens, UniProt P00533, L858R)
Chain of Epidermal growth factor receptor (Homo sapiens, UniProt P00533, L858R) (P00533 25-1210 L858R limits assumed): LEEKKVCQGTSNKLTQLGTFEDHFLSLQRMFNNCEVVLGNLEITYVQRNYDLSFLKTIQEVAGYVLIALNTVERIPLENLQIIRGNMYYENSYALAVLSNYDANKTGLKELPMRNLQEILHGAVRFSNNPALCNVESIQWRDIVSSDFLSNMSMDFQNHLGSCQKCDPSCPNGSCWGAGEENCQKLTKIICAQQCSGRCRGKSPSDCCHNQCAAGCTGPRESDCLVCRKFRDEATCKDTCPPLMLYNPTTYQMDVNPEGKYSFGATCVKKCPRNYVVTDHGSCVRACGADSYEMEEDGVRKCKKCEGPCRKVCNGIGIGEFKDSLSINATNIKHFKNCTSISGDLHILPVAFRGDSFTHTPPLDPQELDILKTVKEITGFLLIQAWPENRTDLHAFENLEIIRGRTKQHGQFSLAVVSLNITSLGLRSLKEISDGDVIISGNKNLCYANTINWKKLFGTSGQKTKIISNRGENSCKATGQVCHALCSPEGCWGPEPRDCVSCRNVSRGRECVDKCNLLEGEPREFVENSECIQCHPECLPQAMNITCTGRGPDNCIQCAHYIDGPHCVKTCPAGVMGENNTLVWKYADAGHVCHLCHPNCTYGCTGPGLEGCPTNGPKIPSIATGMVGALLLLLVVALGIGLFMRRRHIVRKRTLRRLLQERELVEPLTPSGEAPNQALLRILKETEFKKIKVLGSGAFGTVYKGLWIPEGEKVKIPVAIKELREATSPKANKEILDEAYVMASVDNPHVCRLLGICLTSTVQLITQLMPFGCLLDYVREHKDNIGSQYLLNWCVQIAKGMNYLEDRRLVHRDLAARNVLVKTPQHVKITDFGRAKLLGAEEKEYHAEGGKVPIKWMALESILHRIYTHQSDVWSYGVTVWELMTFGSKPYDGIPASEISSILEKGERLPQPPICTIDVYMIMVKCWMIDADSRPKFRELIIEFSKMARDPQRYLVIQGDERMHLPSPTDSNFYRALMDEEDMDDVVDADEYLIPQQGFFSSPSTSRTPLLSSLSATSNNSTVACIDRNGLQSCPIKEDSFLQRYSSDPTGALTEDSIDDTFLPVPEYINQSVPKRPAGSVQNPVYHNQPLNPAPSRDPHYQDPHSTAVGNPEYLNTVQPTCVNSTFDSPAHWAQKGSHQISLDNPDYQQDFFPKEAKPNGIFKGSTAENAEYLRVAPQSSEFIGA

[4] = molecular target: T1, Receptor tyrosine-protein kinase erbB-2; assay: Inhibition of ErbB2 phosphorylation in IGF1 and EGF-stimulated human N87 cells pretreated for 6 hrs before IGF1 and EGF stimulation by ELISA; assay type: cell-based, NCI-N87
[5] = molecular target: T2, Insulin-like growth factor 1 receptor; assay: Inhibition of IGF1R phosphorylation in IGF1 and EGF-stimulated human MiaPaCa2 cells pretreated for 6 hrs before IGF1 and EGF stimulation by ELISA; assay type: cell-based
[6] = molecular target: Epidermal growth factor receptor (Homo sapiens, UniProt P00533); assay: Inhibition of EGFR phosphorylation in IGF1 and EGF-stimulated human MiaPaCa2 cells pretreated for 6 hrs before IGF1 and EGF stimulation by ELISA; assay type: cell-based
Chain of Epidermal growth factor receptor (Homo sapiens, UniProt P00533) (P00533 whole entry): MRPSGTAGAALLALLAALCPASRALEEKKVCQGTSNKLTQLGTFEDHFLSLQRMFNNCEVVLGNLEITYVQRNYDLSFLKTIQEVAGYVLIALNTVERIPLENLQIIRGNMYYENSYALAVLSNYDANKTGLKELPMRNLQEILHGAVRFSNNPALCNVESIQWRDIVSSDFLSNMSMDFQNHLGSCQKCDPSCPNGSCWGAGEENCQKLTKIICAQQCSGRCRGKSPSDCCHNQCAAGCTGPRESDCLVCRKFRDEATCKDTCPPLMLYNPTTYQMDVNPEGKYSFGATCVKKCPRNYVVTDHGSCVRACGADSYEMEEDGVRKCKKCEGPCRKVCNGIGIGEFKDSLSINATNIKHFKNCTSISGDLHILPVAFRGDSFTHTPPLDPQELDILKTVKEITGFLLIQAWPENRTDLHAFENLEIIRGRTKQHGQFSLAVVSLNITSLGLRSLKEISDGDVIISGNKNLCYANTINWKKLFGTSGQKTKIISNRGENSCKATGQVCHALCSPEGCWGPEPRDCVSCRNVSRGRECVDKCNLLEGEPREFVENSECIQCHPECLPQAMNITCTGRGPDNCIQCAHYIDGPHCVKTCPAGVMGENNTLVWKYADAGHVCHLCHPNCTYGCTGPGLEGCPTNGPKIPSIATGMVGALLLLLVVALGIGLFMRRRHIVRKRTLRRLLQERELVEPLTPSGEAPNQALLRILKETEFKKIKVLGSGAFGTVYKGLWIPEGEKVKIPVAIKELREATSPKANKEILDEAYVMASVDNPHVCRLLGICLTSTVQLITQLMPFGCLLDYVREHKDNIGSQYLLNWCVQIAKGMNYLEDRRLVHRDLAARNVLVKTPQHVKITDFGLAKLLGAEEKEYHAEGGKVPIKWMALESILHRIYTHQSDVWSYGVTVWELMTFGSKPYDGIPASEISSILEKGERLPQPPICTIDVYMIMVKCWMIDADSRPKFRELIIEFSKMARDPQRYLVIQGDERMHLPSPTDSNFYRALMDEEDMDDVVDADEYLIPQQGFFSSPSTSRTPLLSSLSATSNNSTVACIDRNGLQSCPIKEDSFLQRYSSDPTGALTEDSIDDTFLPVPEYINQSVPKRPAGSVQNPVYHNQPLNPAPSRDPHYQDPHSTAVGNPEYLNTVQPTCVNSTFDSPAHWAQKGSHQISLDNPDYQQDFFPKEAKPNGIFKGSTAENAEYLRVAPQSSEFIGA

[7] = system: Mus musculus; assay: Inhibition of IGF1R phosphorylation in IGF1 and EGF-stimulated mouse lung at 50 mg/kg, po pretreated 4 hrs before IGF1 and EGF stimulation; assay type: functional, organism-based; parameters: dose 50 mg/kg
[8] = molecular target: Cytochrome P450 2C9 (Homo sapiens, UniProt P11712); assay: Inhibition of human CYP2C9; assay type: ADME
[9] = Oral bioavailability in mouse; assay type: ADME, organism-based; conditions: in vivo
[10] = Protein binding in human plasma; assay type: ADME, cell-free; conditions: read-out: PPB (converted)
[11] = Aqueous solubility at pH 7.2; assay type: physicochemical; conditions: buffer
[12] = Clearance in mouse; assay type: ADME, organism-based; conditions: in vivo
[13] = system: Mus musculus; assay: Dose normalized AUC in po dosed mouse; assay type: ADME, organism-based; conditions: in vivo
[14] = system: Mus musculus; assay: Dose normalized AUC in iv dosed mouse; assay type: ADME, organism-based; conditions: in vivo
[15] = system: Mus musculus; assay: Inhibition of EGFR phosphorylation in IGF1 and EGF-stimulated mouse liver at 50 mg/kg, ip pretreated 4 hrs before IGF1 and EGF stimulation; assay type: functional, organism-based; parameters: dose 50 mg/kg
[16] = Bioavailability in ip dosed mouse; assay type: ADME, organism-based; conditions: in vivo
[17] = system: Mus musculus; assay: Dose normalized AUC in ip dosed mouse; assay type: ADME, organism-based; conditions: in vivo
[18] = molecular target: Cytochrome P450 3A4 (Homo sapiens, UniProt P08684); assay: Inhibition of human CYP3A4; assay type: ADME
[19] = molecular target: Cytochrome P450 2D6 (Homo sapiens, UniProt P10635); assay: Inhibition of human CYP2D6; assay type: ADME
[20] = system: Mus musculus; assay: Inhibition of IGF1R phosphorylation in IGF1 and EGF-stimulated mouse lung at 50 mg/kg, ip pretreated 4 hrs before IGF1 and EGF stimulation; assay type: functional, organism-based; parameters: dose 50 mg/kg
[21] = system: Mus musculus; assay: Inhibition of EGFR phosphorylation in IGF1 and EGF-stimulated mouse liver at 50 mg/kg, po pretreated 4 hrs before IGF1 and EGF stimulation; assay type: functional, organism-based; parameters: dose 50 mg/kg
[22] = Half life in mouse; assay type: ADME, organism-based; conditions: in vivo

| SMILES | IC50 [1] [nM] | IC50 [2] [nM] | IC50 [3] [nM] | EC50 [4] [nM] | EC50 [5] [nM] | EC50 [6] [nM] | further results |
| --- | --- | --- | --- | --- | --- | --- | --- |
| COc1ccccc1Cc1nc2ccc(-c3nn([C@H]4CC[C@H](N5CCOCC5)CC4)c4ncnc(N)c34)cc2[nH]1 | 53 |  |  |  |  |  |  |
| Nc1ncnc2c1c(-c1ccc3nc(Cc4ccccc4)[nH]c3c1)nn2[C@H]1CC[C@H](N2CCOCC2)CC1 | 186 |  | 270 |  |  |  |  |
| COc1ccccc1Cc1nc2ccc(-c3nn([C@H]4CC[C@H](N5CCN(C(=O)N(C)C)CC5)CC4)c4ncnc(N)c34)cc2[nH]1 | 17 | 69 | 25 | 1580 | 208 | 808 |  |
| COc1ccccc1Cc1nc2ccc(-c3nn([C@H]4CC[C@H](N5CCNCC5)CC4)c4ncnc(N)c34)cc2[nH]1 | 44 | 26 | 30 | 210 | 711 | 335 |  |
| Nc1ncnc2c1c(-c1ccc3nc(Cc4ccccc4Cl)[nH]c3c1)nn2[C@H]1CC[C@H](N2CCOCC2)CC1 | 664 | 36 | 65 |  |  |  |  |
| COc1ccccc1Cc1nc2ccc(-c3nn([C@H]4CC[C@H](N5CCN(CC6CC6)CC5)CC4)c4ncnc(N)c34)cc2[nH]1 | 13 | 40 | 3 | 147 | 190 | 91 |  |
| Nc1ncnc2c1c(-c1ccc3nc(Cc4cccs4)[nH]c3c1)nn2[C@H]1CC[C@H](N2CCOCC2)CC1 | 250 | 25 | 361 |  |  |  |  |

More lines, main results first:

| IC50 [1] [nM] | IC50 [2] [nM] | IC50 [3] [nM] | EC50 [4] [nM] | EC50 [5] [nM] | EC50 [6] [nM] | SMILES | further results |
| --- | --- | --- | --- | --- | --- | --- | --- |
| 270 | 309 | 30 | 1600 | 247 | 520 | CCOC(=O)N1CCN([C@H]2CC[C@H](n3nc(-c4ccc5nc(Cc6ccccc6OC)[nH]c5c4)c4c(N)ncnc43)CC2)CC1 |  |
| 54 | 81 | 58 | 94 | 115 | 85 | COCCCN1CCN([C@H]2CC[C@H](n3nc(-c4ccc5nc(Cc6ccccc6OC)[nH]c5c4)c4c(N)ncnc43)CC2)CC1 | inhibition [7]: Active; IC50 [8]: > 20000 nM; bioavailability [9]: 12%; fraction unbound [10]: 0.033; solubility [11]: > 30 µM; clearance [12]: 7.83 mL/min/kg; AUC [13]: 0.42 µmol·h/L/mg/kg; AUC [14]: 3.5 µmol·h/L/mg/kg; inhibition [15]: Active; bioavailability [16]: 100%; AUC [17]: 2.71 µmol·h/L/mg/kg; IC50 [18]: > 20000 nM; IC50 [19]: 1600 nM; inhibition [20]: Active; inhibition [21]: Active; half-life [22]: 3.1 h |
| 59 | 27 | 130 | 660 | 143 | 742 | COc1ccccc1Cc1nc2ccc(-c3nn([C@H]4CC[C@H](N5CCN(C(C)=O)CC5)CC4)c4ncnc(N)c34)cc2[nH]1 |  |
